We go through 7 molecules from PubChem BioAssay (NCI).

Test systems include OVCAR-4 ovarian; SF-539 CNS; HCT-15 colon; SK-OV-3 ovarian; SN12C renal; HT29 colon; T-47D breast; HCC-2998 colon; SR leukemia; KM12 colon; M14 melanoma; OVCAR-5 ovarian; SNB-75 CNS; CCRF-CEM leukemia; 786-0 renal; COLO 205 colon; UO-31 renal; OVCAR-3 ovarian.
Experiment in all cases: NCI-60 cell line screen, 48 h

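Step 1: Grow cells in 96-well plates. Step 2: Expose to compound for 48 hours at 5 concentrations. Step 3: Interpolate endpoints linearly; if unreached, use highest concentration. TGI: concentration producing complete growth inhibition.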 Where a SMILES comes first, the peptide text is derived from it. [ ]: non-standard residue; d: D form. The star is where a group is joined. NMeV = CN[C@H](C(=O)O)C(C)C; X29 = COc1ccc(CN*)c(OC)c1; Octanoyl = CCCCCCCC(=O)*; dNMeA = CN[C@H](C)C(=O)O

Consider `C/C(=N\Nc1ccc([N+](=O)[O-])cc1[N+](=O)[O-])c1sc(-n2nc(-c3ccccc3)cc2-c2ccccc2)nc1C`, for which the TGI in the experiment on OVCAR-4 ovarian was over 100 µM; in the experiment with SF-539 CNS, over 100 µM; in the experiment on HCT-15 colon, over 100 µM; in the experiment with SK-OV-3 ovarian, over 100 µM; in the experiment with SN12C renal, over 100 µM; in the experiment on HT29 colon it was 33.8 µM. In addition, the TGI with T-47D breast is over 100 µM; in the experiment on HCC-2998 colon, over 100 µM; in the experiment with SR leukemia, 46.8 µM; with KM12 colon, over 100 µM; with M14 melanoma, over 100 µM; in the experiment with OVCAR-5 ovarian it was over 100 µM. For the same molecule, the TGI is over 100 µM in the experiment with SNB-75 CNS; 50.9 µM in the experiment on CCRF-CEM leukemia; over 100 µM in the experiment on 786-0 renal; 67.4 µM in the experiment on COLO 205 colon; over 100 µM in the experiment on UO-31 renal; over 100 µM in the experiment on OVCAR-3 ovarian.
In the case of `CCCCCCCC(=O)N[C@H](C(=O)N[C@H](C(=O)N(C)[C@H](C(=O)N1CCC[C@H]1C(=O)N(C)[C@H](C)C(=O)NCc1ccc(OC)cc1OC)C(C)C)C(C)C)C(C)C` (Octanoyl-VV[NMeV]P[dNMeA]-X29), the TGI was over 79.9 µM in the experiment with OVCAR-4 ovarian; over 60.4 µM in the experiment with SF-539 CNS; over 100 µM with HCT-15 colon; over 100 µM in the experiment on SK-OV-3 ovarian; over 100 µM in the experiment with SN12C renal; over 85.2 µM in the experiment with HT29 colon. The TGI in the experiment on T-47D breast was over 100 µM; with HCC-2998 colon, over 100 µM; in the experiment with SR leukemia, over 65.6 µM; in the experiment with KM12 colon, over 100 µM; in the experiment on M14 melanoma it was over 68.1 µM; in the experiment with OVCAR-5 ovarian, over 100 µM. Moreover, the TGI is over 100 µM in the experiment on SNB-75 CNS; over 72.9 µM with CCRF-CEM leukemia; over 100 µM in the experiment with 786-0 renal; 22.7 µM in the experiment with COLO 205 colon; over 100 µM in the experiment with UO-31 renal; over 100 µM in the experiment with OVCAR-3 ovarian.
For `Oc1ccc(-c2cc(-c3cc(-c4ccc(O)cc4)no3)on2)cc1`, the TGI was over 100 µM in the experiment on OVCAR-4 ovarian; over 49.7 µM in the experiment on SF-539 CNS; over 100 µM in the experiment on HCT-15 colon; over 100 µM in the experiment on SK-OV-3 ovarian; over 100 µM in the experiment on SN12C renal; over 100 µM in the experiment with HT29 colon. Moreover, the TGI in the experiment with T-47D breast was over 100 µM; with HCC-2998 colon it was over 100 µM; in the experiment with SR leukemia it was over 31.6 µM; in the experiment with KM12 colon, over 100 µM; in the experiment on M14 melanoma it was over 100 µM; in the experiment with OVCAR-5 ovarian, over 100 µM. Also, the TGI in the experiment on SNB-75 CNS, in the experiment with CCRF-CEM leukemia, in the experiment on 786-0 renal, in the experiment on COLO 205 colon, in the experiment on UO-31 renal and with OVCAR-3 ovarian was over 100 µM throughout.
Consider `C=C(Br)CNC(=O)Nc1ccc(Cl)c(Cl)c1`, for which the TGI in the experiment with OVCAR-4 ovarian was over 100 µM; in the experiment with SF-539 CNS, 39 µM; with HCT-15 colon, over 100 µM; in the experiment on SK-OV-3 ovarian it was 77 µM; in the experiment on SN12C renal, 82.7 µM; in the experiment with HT29 colon, 73.4 µM. In addition, the TGI in the experiment with T-47D breast is over 100 µM; in the experiment on HCC-2998 colon, 44.7 µM; in the experiment with SR leukemia, 62.9 µM; with KM12 colon it was 34.4 µM; with M14 melanoma it was 77.5 µM; in the experiment with OVCAR-5 ovarian, 92.4 µM. Further, the TGI in the experiment on SNB-75 CNS was determined as 51.5 µM; with CCRF-CEM leukemia, 45.1 µM; in the experiment with 786-0 renal, 36 µM; in the experiment with COLO 205 colon it was 30.6 µM; with UO-31 renal it was 24.8 µM; with OVCAR-3 ovarian it was 38.8 µM.
For `CC(=O)Nc1ccc(C(O)/C(=N/N)c2nc3ccc(Cl)cc3[nH]c2=O)cc1` (stereo not given), the TGI in the experiment with OVCAR-4 ovarian, in the experiment with SF-539 CNS, in the experiment on HCT-15 colon, in the experiment with SN12C renal, in the experiment on HT29 colon and with T-47D breast was over 100 µM each time. In addition, the TGI in the experiment on HCC-2998 colon, in the experiment with SR leukemia, in the experiment on KM12 colon, with M14 melanoma, with OVCAR-5 ovarian and in the experiment on SNB-75 CNS was over 100 µM in each case. The TGI in the experiment on CCRF-CEM leukemia, in the experiment with 786-0 renal, in the experiment on COLO 205 colon, in the experiment with UO-31 renal and in the experiment on OVCAR-3 ovarian was over 100 µM each time.
For the molecule `CCOC(=O)c1c(C)nc2c1c(CN(C)C)c(O)c1[nH]c(C)c(C)nc12`, the TGI was over 100 µM in the experiment on OVCAR-4 ovarian; 49.5 µM in the experiment with SF-539 CNS; over 100 µM in the experiment with HCT-15 colon; 92.3 µM with SK-OV-3 ovarian; 38.4 µM with SN12C renal; 81.6 µM with HT29 colon. Also, the TGI in the experiment with T-47D breast was 74.1 µM; in the experiment on HCC-2998 colon, 51 µM; in the experiment with SR leukemia, 51.5 µM; in the experiment with KM12 colon, over 100 µM; in the experiment with M14 melanoma it was over 100 µM; in the experiment on OVCAR-5 ovarian, 94 µM. The TGI with SNB-75 CNS was 60.7 µM; with CCRF-CEM leukemia, 38.3 µM; in the experiment on 786-0 renal, 49.5 µM; in the experiment on COLO 205 colon, 40.4 µM; in the experiment with UO-31 renal, over 100 µM; in the experiment on OVCAR-3 ovarian it was 85.7 µM.
For `CC1CC(C)C(C#N)N(C)c2ccccc21` (stereo not given), the TGI in the experiment on OVCAR-4 ovarian, in the experiment on SF-539 CNS, with HCT-15 colon, in the experiment on SK-OV-3 ovarian, with SN12C renal and with HT29 colon was over 100 µM throughout. For the same molecule, the TGI in the experiment on T-47D breast was over 100 µM; in the experiment on HCC-2998 colon, over 100 µM; with SR leukemia, 92.2 µM; with KM12 colon, over 100 µM; with M14 melanoma, over 100 µM; in the experiment with OVCAR-5 ovarian, over 100 µM. The TGI with SNB-75 CNS, with CCRF-CEM leukemia, with 786-0 renal, with COLO 205 colon, in the experiment on UO-31 renal and in the experiment on OVCAR-3 ovarian was over 100 µM throughout.
